Data taken from US9895344B2, “Treating various disorders with 7,8-dihydroxyflavone and derivatives thereof” (EMORY UNIVERSITY, priority 2008, dated 2018).

Tests used:
[1] = biological target: T1, TrkA (Mus musculus, UniProt Q3UFB7); test: Trk activation in cortical neurons from wild-type and TrkB-null pups: TrkA; type: cell-based, mice; parameters: endogenous in cells; host or cells: primary cortical neurons of mouse pups; settings: FIG. 21
Protocol: To determine whether 7,8-dihydroxyflavone can selectively activate TrkB receptor and prevent neuronal cell death, cortical neurons were prepared from homozygous pups of TrkB+/−mice, which were mated to the same genotype. […] Glutamate nonselectively elicited weak TrkA phosphorylation in both wild-type and TrkB-null neurons (FIG. 21, row 3).

[2] = biological target: T2, TrkB (Mus musculus, UniProt P15209); test: Immunoblotting of brain lysates from forced swim test mice: TrkB; type: in vivo; settings: 5 mg/kg, 21 days oral, anti-p-TrkB 817, FIG. 35
T2 construct: from tissue; host or cells: mouse brain
Protocol: To explore whether 4′-DMA-7,8-DHF and 7,8-DHF have any antidepressant effect, a forced swim test (6 minutes, immobility recorded in the last 4 minutes) was conducted after chronic treatment of male C57BL/6J mice (8 mice/group) for 21 days via oral injection.

[3] = biological target: T3, TrkB intracellular domain (ICD) (Rattus norvegicus, UniProt Q63604); test: In vitro binding assay with [3H]7,8-dihydroxyflavone: TrkB ICD; settings: gradual increments of [3H]-7,8-dihydroxyflavone
T3 construct: purified TrkB extracellular domain (ECD) and intracellular domain (ICD) recombinant proteins
Protocol: To determine whether 7,8-dihydroxyflavone physically and directly binds the TrkB receptor, in vitro binding assays were conducted with purified TrkB extracellular domain (ECD) and intracellular domain (ICD) recombinant proteins. Purified TrkB ECD and ICD (10 μg of each) were incubated with different concentrations of ^3H-7,8-dihydroxyflavone in 1 ml of binding buffer (0.05M Na/K phosphate buffer, pH 7.1, 200 mM NaCl) at 4° C. for 10 minutes. After the incubation, the reaction mixture was loaded on filter paper. The mixture was washed three times with Tris buffer (100 mM Tris, pH 7.1), and the dried filter paper was put into a small vial and subjected to liquid scintillation counter analysis. […] The value of the dissociate constant and the number of sites were obtained from Scatchard plots using the equation r/[L]free=n/Kd−r/Kd, where r is the ratio of the concentration of bound ligand to the total protein concentration and n is the number of binding sites.

[4] = biological target: T1, TrkA; test: Trk activation in wild-type and TrkC knockout cortical neurons: TrkA; type: cell-based, mice; parameters: from tissue; host or cells: mouse brain; settings: FIG. 22
Protocol: To further assess whether 7,8-dihydroxyflavone blocks neuronal apoptosis in a TrkB dependent manner, cortical neurons were prepared from homozygous pups of TrkC+/−mice, which were mated to the same genotype. […] Glutamate weakly stimulated both TrkA and TrkB faint phosphorylation regardless of TrkC genotype (FIG. 22, rows 1 and 3). The spontaneous caspase-3 activation in TrkC−/− neurons was suppressed by 7,8-dihydroxyflavone (FIG. 22, row 5).

[5] = system: KA-induced caspase-3 activation; test: KA-induced neuronal cell death in TrkB F616A mice, oral TrkB agonists; type: in vivo, TrkB F616A knock-in mice
Protocol: TrkB F616A knockin mice (2-3 months old) were fed 1NMPP1 (25 μM) in drinking water one day before pharmacological reagent treatment. The next day, the mice were orally injected with 7,8-DHF or 4′-DMA-7,8-DHF (5 mg/kg) 4 hours before kainic acid (20 mg/kg). The control mice were injected with saline, 1NMPP1, kainic acid alone or administrated 7,8-DHF or 4′-DMA-7,8-DHF 4 hours before kainic acid. In 4 days, the mice were sacrificed and brains were homogenized and ultra-centrifuged. The supernatant (40 μg) was employed for SDS-PAGE and immunoblotting analysis with indicated antibodies, respectively.
To explore whether the neuroprotective effect of these small molecules is dependent on TrkB activation in vivo, TrkB F616A knock-in mice were used.

T1 sequence (Q3UFB7 34-799): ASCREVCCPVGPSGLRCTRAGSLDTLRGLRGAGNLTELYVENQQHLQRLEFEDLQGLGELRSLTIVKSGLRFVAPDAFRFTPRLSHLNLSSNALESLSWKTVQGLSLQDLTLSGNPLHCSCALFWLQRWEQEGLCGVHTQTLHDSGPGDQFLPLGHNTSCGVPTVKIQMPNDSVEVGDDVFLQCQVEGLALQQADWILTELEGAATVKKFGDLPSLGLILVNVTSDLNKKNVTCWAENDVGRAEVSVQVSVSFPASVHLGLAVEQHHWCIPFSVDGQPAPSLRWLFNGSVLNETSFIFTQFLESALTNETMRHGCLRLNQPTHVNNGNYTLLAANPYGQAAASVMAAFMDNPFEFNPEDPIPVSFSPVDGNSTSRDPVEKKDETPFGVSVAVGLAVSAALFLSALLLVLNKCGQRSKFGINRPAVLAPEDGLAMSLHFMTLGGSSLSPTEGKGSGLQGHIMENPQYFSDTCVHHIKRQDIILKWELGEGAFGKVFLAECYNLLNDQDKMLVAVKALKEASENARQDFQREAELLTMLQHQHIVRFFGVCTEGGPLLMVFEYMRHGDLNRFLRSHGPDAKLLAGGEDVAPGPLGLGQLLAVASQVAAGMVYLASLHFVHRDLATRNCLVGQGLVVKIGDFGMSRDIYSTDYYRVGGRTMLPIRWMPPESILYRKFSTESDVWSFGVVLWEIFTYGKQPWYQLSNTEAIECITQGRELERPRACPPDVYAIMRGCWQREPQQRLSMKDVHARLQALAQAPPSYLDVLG
T3 sequence (Q63604 454-821 limits assumed): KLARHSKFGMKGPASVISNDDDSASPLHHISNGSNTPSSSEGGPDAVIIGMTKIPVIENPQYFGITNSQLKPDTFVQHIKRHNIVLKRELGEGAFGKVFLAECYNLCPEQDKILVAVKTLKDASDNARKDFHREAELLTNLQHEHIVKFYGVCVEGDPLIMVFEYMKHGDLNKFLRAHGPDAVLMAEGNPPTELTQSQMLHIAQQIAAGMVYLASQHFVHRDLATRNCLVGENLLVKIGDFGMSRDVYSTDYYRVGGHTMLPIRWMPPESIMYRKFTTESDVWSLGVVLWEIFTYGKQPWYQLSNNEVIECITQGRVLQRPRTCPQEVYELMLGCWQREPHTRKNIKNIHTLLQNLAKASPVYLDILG
T2 sequence (P15209 32-821): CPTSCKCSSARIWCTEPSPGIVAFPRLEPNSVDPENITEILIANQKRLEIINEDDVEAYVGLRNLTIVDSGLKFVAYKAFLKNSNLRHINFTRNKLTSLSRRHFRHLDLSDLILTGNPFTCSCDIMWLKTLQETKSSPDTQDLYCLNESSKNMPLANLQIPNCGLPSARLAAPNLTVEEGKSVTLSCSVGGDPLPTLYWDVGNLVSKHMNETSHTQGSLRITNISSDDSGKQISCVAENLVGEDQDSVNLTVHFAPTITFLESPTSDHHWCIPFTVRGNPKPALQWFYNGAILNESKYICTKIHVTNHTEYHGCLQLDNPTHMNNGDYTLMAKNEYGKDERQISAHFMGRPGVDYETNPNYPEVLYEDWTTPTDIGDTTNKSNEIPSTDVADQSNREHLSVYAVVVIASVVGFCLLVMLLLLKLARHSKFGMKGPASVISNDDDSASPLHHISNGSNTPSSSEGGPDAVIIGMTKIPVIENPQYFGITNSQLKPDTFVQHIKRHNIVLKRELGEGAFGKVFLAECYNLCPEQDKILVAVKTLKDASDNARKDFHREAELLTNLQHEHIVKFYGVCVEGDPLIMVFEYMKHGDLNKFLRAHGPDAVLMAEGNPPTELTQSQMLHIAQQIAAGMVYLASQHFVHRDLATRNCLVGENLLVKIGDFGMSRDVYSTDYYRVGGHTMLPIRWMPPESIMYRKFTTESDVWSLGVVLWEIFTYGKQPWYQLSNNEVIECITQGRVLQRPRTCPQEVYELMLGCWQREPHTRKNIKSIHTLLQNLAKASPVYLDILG

O=c1cc(-c2ccccc2)oc2c(O)c(O)ccc12 [7,8-dihydroxyflavone]
TrkA activation [1]: not TrkA receptor | TrkB activation in mouse brain [2]: provoke TrkB | binding to TrkB ICD [3]: not ICD | TrkA activation in wild-type and TrkC knockout neurons [4]: not TrkA activation | KA-caused caspase-3 activation ([5]; 5 mg/kg orally 4 hours before kainic acid (20 mg/kg), FIG. 31): markedly diminished | protective effect after 1NMPP1 pretreatment ([5]; 1NMPP1 (25 μM) in drinking water, FIG. 31 top): abolished | TrkB phosphorylation after 1NMPP1 pretreatment ([5]; FIG. 31, 2nd panel): notably blocked
